Molecular target: Beta-2 adrenergic receptor (Homo sapiens, UniProt P07550)
Experiment: Displacement of [3H]-CGP-12177 from human beta2-adrenergic receptor

Chain of Beta-2 adrenergic receptor (P07550 whole entry): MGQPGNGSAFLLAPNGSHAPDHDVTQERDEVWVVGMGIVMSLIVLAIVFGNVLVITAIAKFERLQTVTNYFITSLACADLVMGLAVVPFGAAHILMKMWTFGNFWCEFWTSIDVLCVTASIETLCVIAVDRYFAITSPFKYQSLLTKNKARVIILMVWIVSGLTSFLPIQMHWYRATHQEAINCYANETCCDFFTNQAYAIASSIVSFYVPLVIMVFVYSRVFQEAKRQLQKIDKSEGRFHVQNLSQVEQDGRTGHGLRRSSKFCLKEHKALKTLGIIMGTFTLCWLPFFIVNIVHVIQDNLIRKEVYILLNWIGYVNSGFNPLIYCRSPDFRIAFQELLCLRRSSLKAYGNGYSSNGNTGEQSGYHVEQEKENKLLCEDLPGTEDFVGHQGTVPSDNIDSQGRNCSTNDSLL

## COc1cc2c3c(c1OC)-c1ccccc1[C@H](O)[C@H]3NCC2
  IC50: 1600 nM
